Source: patent US20260344673A1, “A SOLID FORM FOR PREPARATION OF AN AQUEOUS DISPERSION, AQUEOUS DISPERSION, STABLE CONCENTRATE, COMBINED AQUEOUS DISPERSION, AND USES THEREOF” (priority 2022, published 2026)

What was measured:
spring barley [1] = conditions: compared with uninoculated plots; Montana 1981 and 1982; cited from earlier work
Cochliobolus sativus = conditions: Montana 1981 and 1982; cited from earlier work
spring barley [2] = conditions: Montana 1981 and 1982; cited from earlier work
seeds = experiment: Seed treatment test: germination rate, infected seeds, shoot and root biomass (all seed species); type: in vivo; conditions: applied alone and in mixtures with seed treatment fungicides
Procedure: The method of treating seeds according to the embodiment of the present inventions can be characterised in that in the treatment seed with 30 g checked product with and without combination with fungicidal seed treatment products per 100 kg of seed are employed. The results were assessed due to EPPO: PP1/152(4), PP 1/19 (5), PP 1/135(4) and PP1/181(4) Standards.
Seed treatment test was conducted according to International Rules for Seed Testing 2018 (ISTA) under laboratory conditions using sterile paper as a growing media. The tests were continued for 14 days. As a result, the germination rate and the number of infected seeds were calculated. The biomass (shoots and roots) was collected and measured accordingly.

SMILES	plant emergence (spring barley [1])	control of common root rot / disease ratings (Cochliobolus sativus)	grain yield (spring barley [2])	biomass increase (shoots and roots) (seeds)	germination percentage (seeds)
C=CCOC(Cn1ccnc1)c1ccc(Cl)cc1Cl (stereo not drawn) [imazalil]	increased emergence	–	–	–	–
OC(c1ccc(F)cc1)(c1cncnc1)c1ccccc1Cl (stereo not drawn) [Nuarimol]	increased emergence	statistically significant in disease reduction	did not increase grain yield	–	–
O=C(O)CN(CCN(CC(=O)O)CC(=O)O)CC(=O)O.[Zn+2] [zinc chelated by EDTA, zinc chelated by EDTA (ethylenediamine tetraacetic acid)]	–	–	–	neutral to positive influence	neutral to positive influence
